From patent US12606572B2, “Substituted heterocycles and uses thereof” (Kumquat Biosciences Inc., priority 2023, dated 2026)
pIC50: −log10 of the molar value.

Legend:
[1] = biological target: T1, KRAS G12S (Homo sapiens, UniProt P01116, G12S); assay: HTRF assay, interaction of GST-tagged K-Ras with His-tagged hSOS1 (KRAS G12S); assay type: biochemical; conditions: <500 nM, read-out: Inhibition of KRAS G12S (IC50)
T1 construct: made in house; host or cells: E. coli BL21 (DE3)
In short: (§1)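 GST-K-Ras (G12S or WT) with anti-GST-Eu donor mixed with His-hSOS1 and anti-6His-XL665 acceptor in ~5 mM HEPES pH 7.4, 150 mM NaCl, 1 mM DTT, 0.05% BSA, 0.0025% Igepal. After ~10 min or longer, HTRF 665/620 nm ratio read.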

[2] = biological target: T2, KRAS WT (Homo sapiens, UniProt P01116); assay: HTRF assay, interaction of GST-tagged K-Ras with His-tagged hSOS1 (KRAS wildtype); assay type: biochemical; conditions: <500 nM, read-out: Inhibition of KRAS WT (IC50)
T2 construct: made in house; host or cells: E. coli BL21 (DE3)
T2 sequence (P01116 1-188 isoform P01116-2): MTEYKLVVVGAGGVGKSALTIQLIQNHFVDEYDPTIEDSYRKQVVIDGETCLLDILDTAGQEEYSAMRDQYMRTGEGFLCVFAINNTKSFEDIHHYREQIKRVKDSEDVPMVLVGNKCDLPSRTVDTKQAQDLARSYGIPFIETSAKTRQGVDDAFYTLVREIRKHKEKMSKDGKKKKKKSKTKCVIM
In short: as §1

T1 sequence (P01116 1-188 isoform P01116-2 G12S): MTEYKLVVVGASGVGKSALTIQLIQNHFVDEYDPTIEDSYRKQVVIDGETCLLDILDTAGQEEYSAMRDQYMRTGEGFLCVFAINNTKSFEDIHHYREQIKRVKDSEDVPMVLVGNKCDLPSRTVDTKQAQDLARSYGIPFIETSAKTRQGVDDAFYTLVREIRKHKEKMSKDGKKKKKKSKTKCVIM

Row | pIC50 [1] | pIC50 [2] | SMILES
1 | > 6.30 | > 6.30 | C[C@@H]1CCOc2c(Cl)c(-c3ccc(F)c4sc(N)c(C#N)c34)c(F)c3nc(OC[C@@]45CCCN4C[C@H](F)C5)nc(c23)N1CC1CCCN1C(=O)n1ccnc1 (stereo partly drawn) [Compound 414, 4-((5R)-4-((1-(1H-imidazole-1-carbonyl)pyrrolidin-2-yl)methyl)-9-chloro-11-fluoro-2-(((2R,7aS)-2-fluorotetrahydro-1H-pyrrolizin-7a(5H)-yl)methoxy)-5-methyl-4,5,6,7-tetrahydro-[1,5]oxazocino[4,3,2-de]quinazolin-10-yl)-2-amino-7-fluorobenzo[b]thiophene-3-carbonitrile]
2 | > 6.30 | > 6.30 | CC(C)[C@@H]1[C@@H](CN2c3nc(OC[C@@]45CCCN4C[C@H](F)C5)nc4c(F)c(-c5ccc(F)c6sc(N)c(C#N)c56)c(Cl)c(c34)OC[C@@H]2[C@H](C)O)CN1C(=O)n1ccnc1 (single isomer, unassigned) [Compound 410]
3 | > 6.30 | > 6.30 | N#Cc1c(N)sc2c(F)ccc(-c3c(Cl)c4c5c(nc(OC[C@@]67CCCN6C[C@H](F)C7)nc5c3F)N(CC3CN(C(=O)C5=CCCC5)C3)CCO4)c12 [Compound 462, 2-amino-4-(8-chloro-4-((1-(cyclopent-1-ene-1-carbonyl)azetidin-3-yl)methyl)-10-fluoro-2-(((2R,7aS)-2-fluorotetrahydro-1H-pyrrolizin-7a(5H)-yl)methoxy)-5,6-dihydro-4H-[1,4]oxazepino [5,6,7-de]quinazolin-9-yl)-7-fluorobenzo[b]thiophene-3-carbonitrile]
4 | > 6.30 | > 6.30 | Cc1ncn(C(=O)N2C[C@@H](CN3CCOc4c(Cl)c(-c5ccc(F)c6sc(N)c(C#N)c56)c(F)c5nc(OC[C@@]67CCCN6C[C@H](F)C7)nc3c45)[C@H]2C2(C)CC2)c1C (single isomer, unassigned) [Compound 476]
5 | > 6.30 | > 6.30 | N#Cc1c(N)sc2c(F)ccc(-c3c(Cl)c4c5c(nc(OC[C@@]67CCCN6C[C@H](F)C7)nc5c3F)N(CC3CN(C(=O)/C=C/C5COC5)C3)CCO4)c12 [Compound 475, 2-amino-4-(8-chloro-10-fluoro-2-(((2R,7aS)-2-fluorotetrahydro-1H-pyrrolizin-7a(5H)-yl)methoxy)-4-((1-((E)-3-(oxetan-3-yl)acryloyl)azetidin-3-yl)methyl)-5,6-dihydro-4H-[1,4]oxazepino[5,6,7-de]quinazolin-9-yl)-7-fluorobenzo[b] thiophene-3-carbonitrile]
6 | > 6.30 | > 6.30 | C[C@@H]1[C@H](N2c3nc(OC[C@@]45CCCN4C[C@H](F)C5)nc4c(F)c(-c5ccc(F)c6sc(N)c(C#N)c56)c(Cl)c(c34)OC[C@@H]2C)CCN1C(=O)n1cnc(C#N)c1 [Compound 406, 1-((2R,3R)-3-((5S)-9-(2-amino-3-cyano-7-fluorobenzo[b]thiophen-4-yl)-8-chloro-10-fluoro-2-(((2R,7aS)-2-fluorotetrahydro-1H-pyrrolizin-7a(5H)-yl)methoxy)-5-methyl-5,6-dihydro-4H-[1,4]oxazepino [5,6,7-de]quinazolin-4-yl)-2-methylpyrrolidine-1-carbonyl)-1H-imidazole-4-carbonitrile]
7 | > 6.30 | > 6.30 | CC(C)(C)[C@@H]1[C@H](CN2CCOc3c(Cl)c(-c4ccc(F)c5sc(N)c(C#N)c45)c(F)c4nc(OC[C@@]56CCCN5C[C@H](F)C6)nc2c34)CN1C(=O)n1cnc(F)n1 (single isomer, unassigned) [Compound 434]
